Laboratory results as given in patent US20260124200A1, “METHOD OF TREATING NEURODEGENERATIVE DISEASES” (The Board of Trustees of the University of Illinois, priority 2022, published 2026).

Legend:
fpn-1.2KO C. elegans [1] = assay: GFP-tagged ferritin (ftn-1) fluorescence in ASI neurons of fpn-1.2KO worms; assay type: in vivo
From the text: (§1) The ability of hinokitiol and FeM-1269 to confer neuroprotection. Replicated NBIA, was created fpn-1.2KO C. elegans strain using CRISPR/Cas9-mediated knockout and then mated with Pdat::GFP strain to create a fpn-1.2KO strain with GFP-tagged dopaminergic neurons (fpn-1.2KO; Pdat::GFP). The genotype of strains was verified by genotyping PCR and Sanger sequencing. All strains used have been backcrossed to N2 at least three times. To treat C. elegans with small molecules, day 4 adult worms were transferred to NGM containing small molecules. Worms were transferred to newly seeded small molecules containing NGM until the day seven in which they are imaged using a confocal microscope with GFP fluorescence. The scoring is conducted in a blinded study in which the integrity of the dopaminergic neuron is observed to reflect neurodegeneration. […] Hinokitiol derivative FeM-1269 may have potential to increase the therapeutic index of hinokitiol. […] On the other hand, hinokitiol and FeM-1269 treatment to fpn-1.2KO worms caused robust reductions of fluorescence levels (FIG. 3G-H) from the concentration of 0.1 μM and 0.05 μM, respectively, which can be associated with the release of intracellular iron from ASI neurons. […]

fpn-1.2KO C. elegans [2] = assay: Dopaminergic neurodegeneration scoring in fpn-1.2KO; Pdat::GFP worms; assay type: in vivo
From the text: as §1

[3] = Cyclic voltammetry of hinokitiol-iron complexes; assay type: physicochemical; settings: 100 mV/s, 0.1 M Tris, 1:1 MeOH:H2O, pH=7.2, 100 μM Fe(NO3)3
Experimental: These were obtained with a 100 mV/s scan rate with a Hg electrode, Ag/AgCl reference, and graphite auxiliary using a 0.1 M Tris buffer in 1:1 MeOH:H2O at pH=7.2 and 100 μM Fe(NO3)3.

flatiron mice = assay: ICP-MS brain iron level in flatiron mice; assay type: in vivo
Experimental: In parallel to C. elegans, flatiron mice were used, a leading animal model of FPN1 deficiency due to H32R mutation of FPN1 (34, 35). These mice were subjected to ICP-MS and behavioral studies in which blood samples and tissues were collected and submitted for analysis. In addition, behavior was assessed by an elevated plus maze, exploratory mazes, and daily monitoring. […] To determine dose-dependency these mice were subjected to a singular IP injection to assess acute administration and then treated chronically via IP injections of 10 mg/kg for a week.

human apo-Tf = human apo-Tf (Homo sapiens, UniProt P02787); assay: Iron handoff to transferrin; assay type: biochemical
human apo-Tf, sequence (P02787 20-698): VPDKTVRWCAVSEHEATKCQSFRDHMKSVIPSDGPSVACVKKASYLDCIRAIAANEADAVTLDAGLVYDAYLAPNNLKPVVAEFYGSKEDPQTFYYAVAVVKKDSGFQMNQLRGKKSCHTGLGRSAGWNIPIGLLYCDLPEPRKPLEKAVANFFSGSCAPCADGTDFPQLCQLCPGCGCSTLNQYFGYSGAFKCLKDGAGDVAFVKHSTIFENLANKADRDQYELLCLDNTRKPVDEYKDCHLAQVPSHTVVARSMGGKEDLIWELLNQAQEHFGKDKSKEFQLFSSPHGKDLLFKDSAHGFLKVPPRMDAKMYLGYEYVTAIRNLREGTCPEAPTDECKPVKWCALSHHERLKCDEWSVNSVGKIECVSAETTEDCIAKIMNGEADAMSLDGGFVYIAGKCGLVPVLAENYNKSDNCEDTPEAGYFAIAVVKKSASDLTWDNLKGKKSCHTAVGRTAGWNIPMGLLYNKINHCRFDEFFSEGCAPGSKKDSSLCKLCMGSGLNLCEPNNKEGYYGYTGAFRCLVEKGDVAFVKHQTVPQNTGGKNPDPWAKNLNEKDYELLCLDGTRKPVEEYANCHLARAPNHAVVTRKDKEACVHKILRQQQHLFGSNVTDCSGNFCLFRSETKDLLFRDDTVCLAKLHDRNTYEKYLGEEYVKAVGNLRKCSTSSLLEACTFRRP
Experimental: For kinetic experiments, 4 μM human apo-Tf was incubated with 64 μM Fe(Hino)3 complex. The reactions were stopped at several time points using sample buffer. Samples were run using the same conditions as above. After running, the gels were stained with RAPIDStain (G-biosciences 786-31), according to the manufacturer's instructions. The formation of different Fe-Tf species was quantified by measuring the band densities using ImageLab 4.1 (Bio-Rad) and expressed as a function of molar fractions.

FPN1.2KO C. elegans = assay: ROS (DCF) in lysate of treated FPN1.2KO C. elegans; assay type: in vivo; settings: treated day four, collected day 5, lysate with DCF
[4] = EPR of Fe(II) oxidation on compound binding
[5] = LC-MS in vitro dopamine oxidation assay; assay type: physicochemical; settings: 100 μM dopamine
Experimental: To monitor dopamine oxidation, an in vitro assay using an LC-MS was developed by monitoring dopamine concentrations via mass spectrometry hits. Samples of 100 μM dopamine were prepared and then treated with either control, hino, or FeM-1269. […] In addition, this was monitored via LC-MS to see the concentration of DAC generated in this same process.

Row | SMILES | ferritin-GFP fluorescence level in ASI neurons (fpn-1.2KO C. elegans [1]; all administered concentrations) | neuroprotective effect (dopaminergic neurodegeneration score) (fpn-1.2KO C. elegans [2]; all concentrations administered) | redox potentials of Fe:Hino [3] | blood-brain barrier penetration (flatiron mice; inferred from brain iron decrease) | brain iron level after acute administration (flatiron mice; singular IP injection) | iron handoff to transferrin (human apo-Tf) | ROS level in vivo (FPN1.2KO C. elegans) | concentration from which fluorescence levels are robustly reduced (fpn-1.2KO C. elegans [1]; ASI neurons, GFP-tagged ferritin) [µM] | concentration showing neuroprotective efficacy (fpn-1.2KO C. elegans [2]; worms treated day 4 to day seven) [µM] | ferroxidase-mimicking activity (EPR) ([4]; EPR results) | EPR signal g′ ([4]; Fe(II) plus compound 3:1, 1:1 MeOH:H2O, 77K) | dopamine oxidation (dopamine remaining) [5]
1 | Cc1c(O)c(=O)ccn1C [DFP, deferiprone] | failed to reduce the fluorescence level | did not confer neuroprotective effects |  |  |  |  |  |  |  |  |  | 
2 | CC(C)c1cccc(=O)c(O)c1 [hinokitiol] |  |  | decreased with increasing hinokitiol concentrations | capacity to penetrate blood-brain barrier | dose-dependent decrease of brain iron level | can handoff iron to transferrin | restore wild type levels of ROS | ≥ 0.1 | 0.05 to 0.1 | promoting Fe(II) oxidation to Fe(III) | 4.3 | mitigating dopamine oxidation
